This note sets out measurements from article PMC9490236, “Accurate de novo design of membrane-traversing macrocycles” (Cell, 2022).

Broadly, the Papp is the rate of passage across a membrane or cell layer, normalised by area and donor concentration.

Each structure is given as a SMILES string. Where a SMILES comes first, the peptide text is derived from it. [ ]: non-standard residue; d: D form. NMeL = CN[C@@H](CC(C)C)C(=O)O; dNMeL = CN[C@H](CC(C)C)C(=O)O; NMeA = CN[C@@H](C)C(=O)O; dNMeA = CN[C@H](C)C(=O)O

One data set has as its system Caco-2 cells. Kind of data set: Caco-2 permeability assay (apical to basolateral). The class given is in vitro ADME, human. Also on record: Caco_R1 / Caco_R3: unit not given here. How it is done:
Human colon adenocarcinoma-derived Caco-2 cell line was used as a model system to investigate the intestinal epithelial permeability of our designs. Caco-2 cells were propagated in T125 flasks (Corning, Merck) using Dulbecco’s modified Eagle medium supplemented with 10% (v/v) fetal bovine serum, 1% (v/v) nonessential amino acids, and 1% (v/v) penicillin-streptomycin (Gibco, Thermo Fisher Scientific) at 37°C in an atmosphere of 5% CO2. Cells were subcultured when they reached 80% confluence.
The permeability of designed peptides was evaluated using an accelerated 6-day Caco-2 permeability assay as described previously ([Sevin et al., 2013]). In brief, cells were seeded into the 12-well Transwell plates with 0.4 μm polyester membrane inserts (Corning, Merck) to give 4.0 × 10^5 cells/well. The complete assay medium contained Dulbecco’s modified Eagle medium supplemented with 10% (v/v) fetal bovine serum, 1% (v/v) nonessential amino acids, and 0.4 μg/mL puromycin. The medium in plates was renewed every second day. The inserts received 0.75 mL of assay medium in the upper compartment (apical chamber) and 1.5 mL in the bottom compartment (basolateral chamber) individually. After 6-day incubation or until the cells formed monolayers, the medium in the apical and basolateral chamber was replaced with peptide solutions at 50 μM or Hanks' Balanced Salt Solution (HBSS), separately. The plates were incubated for 90 min at 37°C on an orbital shaker (60 rpm). The peptide concentration of solutions in the apical and basolateral compartments was subsequently quantified using LC-MS (Qstar Elite, AB Sciex Australia) to evaluate the transmembrane flux of peptides in the apical-to-basolateral direction. Membrane integrity of the Caco-2 cell monolayer was validated using trans-epithelial electrical resistance (TEER) measurements before and after the assays. Atenolol and quinidine were included as negative and positive controls in all assays.

The conditions of data set [1]: PAMPA. (In general: The PAMPA barrier holds no transporters, so it reflects passive diffusion.)
A short description of another data set: in vitro. Particulars: PAMPA, PAMPA_Papp_Avg.

`CC[C@@H](C)[C@H]1NC(=O)[C@H](CC(C)C)NC(=O)[C@@H](CC(C)C)NC(=O)[C@H](C(C)C)NC(=O)[C@@H](Cc2ccccc2)N(C)C(=O)[C@@H]2CCCN2C(=O)[C@@H](CC(C)C)NC(=O)[C@H](CC(C)C)NC(=O)[C@H]2CCCN2C1=O` (single isomer, unassigned) [Design D9.4.p2, LEU DILE DPRO LEU DLEU PRO *DPHE VAL DLEU] registered a Caco_R1 in the data set on Caco-2 cells (Caco-2 Papp, replicate 1) of 3.27. The Caco_R3 in the data set with Caco-2 cells (Caco-2 Papp, replicate 3) was determined as 2.03.

In the data set on Caco-2 cells (Caco-2), `CC(C)C[C@@H]1NC(=O)[C@@H]2CCCN2C(=O)[C@@H](Cc2ccccc2)NC(=O)[C@H](C)N(C)C(=O)[C@H](CC(C)C)NC(=O)[C@H](CC(C)C)N(C)C(=O)[C@@H](C)NC(=O)[C@@H](CC(C)C)NC(=O)[C@@H]2CCCN2C(=O)[C@@H](Cc2ccccc2)NC1=O` (single isomer, unassigned) [Design D10.2.p2, LEU DPHE PRO DLEU DALA *LEU LEU *ALA DPHE PRO] had a Caco_Papp_Average of 0, a Caco_R1 of 0 and a Caco_R3 of 0. In data set [1], this molecule gave a PAMPA_Papp_Avg of 3.60E-07, a PAMPA_R1 of 4.31E-07 and a PAMPA_R3 of 4.68E-07.

Consider `CC[C@H](C)[C@@H]1NC(=O)[C@H](Cc2ccccc2)N(C)C(=O)[C@H](CC(C)C)N(C)C(=O)[C@@H](C(C)C)NC(=O)[C@@H](C)NC(=O)[C@@H]2CCCN2C(=O)[C@@H](CC(C)C)NC(=O)[C@@H]2CCCN2C(=O)[C@H](C)NC1=O` (single isomer, unassigned) [Design D9.6.p2], for which the Caco_R1 in the data set on Caco-2 cells (Caco-2 Papp, replicate 1) is recorded as 3.08. This molecule came in with a Caco_R3 in the data set with Caco-2 cells (Caco-2 Papp, replicate 3) of 7.44.

On to `CC(C)C[C@@H]1NC(=O)[C@@H](C)N(C)C(=O)[C@@H](CC(C)C)N(C)C(=O)[C@@H]2CCCN2C(=O)[C@H]2CCCN2C(=O)[C@@H](C)NC(=O)[C@@H]2CCCN2C(=O)[C@H]2CCCN2C(=O)[C@@H](CC(C)C)NC1=O` [Design D9.27, DLEU DPRO PRO DALA DPRO PRO *DLEU *DALA LEU] (cyclo([dA][dP]P[dNMeL][dNMeA]L[dL][dP]P)), for which, in data set [1], the PAMPA_R1 is given as 3.26E-08 and the PAMPA_R3 is on record as 3.49E-08. The molecule further gave a Papp in “in vitro” of 0.0334 ×10⁻⁶ cm/s.

`CC[C@H](C)[C@@H]1NC(=O)[C@@H](C)N(C)C(=O)[C@@H](C)N(C)C(=O)[C@@H]2CCCN2C(=O)[C@H](CC(C)C)NC(=O)[C@H](CC(C)C)NC(=O)[C@@H](CC(C)C)NC(=O)[C@@H]2CCCN2C(=O)[C@H]2CCCN2C1=O` [Design D9.11, PRO DLEU LEU LEU PRO *DALA *DALA ILE DPRO] (cyclo([dL]LLP[dNMeA][dNMeA]I[dP]P)): in data set [1], the PAMPA_R1 turned out to be 2.61E-07 and the PAMPA_R3 is 2.10E-07. The molecule also returned a Papp in “in vitro” of 0.223 ×10⁻⁶ cm/s.

In data set [1], `CC[C@@H](C)[C@H]1NC(=O)[C@@H]2CCCN2C(=O)[C@@H](Cc2ccccc2)NC(=O)[C@H](CC(C)C)N(C)C(=O)[C@H](C)NC(=O)[C@H]2CCCN2C(=O)[C@@H]2CCCN2C(=O)[C@H](CC(C)C)NC(=O)[C@H](CC(C)C)N(C)C(=O)[C@H](C)N(C)C1=O` [Design D10.26, PRO DILE *ALA *LEU LEU PRO DPRO ALA *LEU DPHE] (cyclo(A[NMeL][dF]P[dI][NMeA][NMeL]LP[dP])) had a PAMPA_R1 of 1.40E-06 and a PAMPA_R3 of 1.69E-06. Moreover, in the data set “in vitro”, the Papp came out at 1.51 ×10⁻⁶ cm/s.

For the molecule `CC[C@H](C)[C@@H]1NC(=O)[C@@H](C)N(C)C(=O)[C@H]2CCCN2C(=O)[C@H]2CCCN2C(=O)[C@H](Cc2ccccc2)NC(=O)[C@@H](CC(C)C)NC(=O)[C@@H](CC(C)C)N(C)C(=O)[C@@H]2CCCN2C1=O` [Design D8.17, PRO *DLEU DLEU PHE DPRO DPRO *DALA ILE] (cyclo(F[dP][dP][dNMeA]IP[dNMeL][dL])), in data set [1], the PAMPA_R1 is listed as 5.94E-07 and the PAMPA_R3 was 8.83E-07. Besides, in the data set “in vitro”, the Papp came to 0.72 ×10⁻⁶ cm/s.
